Results published in patent US20110039721A1, “METHOD FOR PREDICTION ABOUT CARCINOGENICITY OF SUBSTANCE IN RODENT” (Chemicals Evaluation and Research Institute, priority 2007, published 2011).

Test system: mRNA expressed from the genes (A) to (D) in rat liver
Assay: Behavior of genes (mRNA expression level, oligo-DNA microarray) in rat liver after 28-day oral administration
Format: in vivo
Method: A test solution was prepared by dissolving each of the carcinogens and the non-carcinogens shown in Tables 2 to 6 in the corresponding solvent shown in Tables 2 to 6. Each of the thus prepared test solutions and the solvents used for the preparation was administered by oral gavage to rats in each group. As the rats, male rats (F344 SPF rats) at 5 weeks of age obtained from Charles River Laboratories Japan, Inc. were used. The animals were divided into groups, each containing four individuals. The volume of the solvent administered to the vehicle control group was set to the same volume as that of the test solution administered to the carcinogen administration group or the non-carcinogen administration group. The administration of the test solution or the solvent was performed once daily for 28 days. Apiece was excised from the liver of each of the rats after a lapse of 28 days from the initiation of the administration, and the total RNA was extracted and purified.
The expression level of mRNA was compared between each of the chemical substance administration groups and the corresponding vehicle control group, and genes that satisfy the requirements described in (A) to (D) were selected, respectively.
The case where the expression level of mRNA in the carcinogen administration group or the non-carcinogen administration group is 1.5 times or more or 1/1.5 or less of the expression level of the corresponding mRNA expressed in the control group was determined to be significant. In this connection, the determination as to whether or not the change is significant was performed by taking into consideration the direction of increase or decrease in the expression level. In the case where the direction of increase or decrease is different as compared with the case where another carcinogen was administered, the change was determined to be not significant.

[1] = gene group (A), Unigene No. Rn.167075
[2] = gene group (C), Unigene No. Rn.120914
[3] = (C), Unigene Rn.120914, defined direction +, rat liver, oral once daily 28 days

O=C1O[C@H]([C@@H](O)CO)C(O)=C1O [TS010, L-Ascorbic acid]
Behavior of gene caused by administration of chemical substance, Gene No. 4846 (gene group (A), Unigene No. Rn.144554): −
Behavior of gene caused by administration of chemical substance, Gene No. 2026 [1]: −
Behavior of gene caused by administration of chemical substance, Gene No. 4218 [1]: −
Behavior of gene caused by administration of chemical substance, Gene No. 6182 (gene group (A), Unigene No. Rn.5834): −
Behavior of gene caused by administration of chemical substance, Gene No. 5600 (gene group (A), Unigene No. Rn.9836): −
Behavior of gene caused by administration of chemical substance, Gene No. 1494 (gene group (B), Unigene No. Rn.1430): −
Behavior of gene caused by administration of chemical substance, Gene No. 2045 (gene group (B), Unigene No. Rn.19329): −
Behavior of gene caused by administration of chemical substance, Gene No. 2203 (gene group (B), Unigene No. Rn.21240): −
Behavior of gene caused by administration of chemical substance, Gene No. 533 (gene group (C), Unigene No. Rn.106184): −
Behavior of gene caused by administration of chemical substance, Gene No. 725 (gene group (C), Unigene No. Rn.108075): −
Behavior of gene caused by administration of chemical substance, Gene No. 1163 (gene group (C), Unigene No. Rn.11766): −
Behavior of gene caused by administration of chemical substance, Gene No. 4973 (gene group (C), Unigene No. Rn.118529): −
Behavior of gene caused by administration of chemical substance, Gene No. 4095 (gene group (C), Unigene No. Rn.119024): −
Behavior of gene caused by administration of chemical substance, Gene No. 1334 [2]: −
Behavior of gene caused by administration of chemical substance, Gene No. 6620 [2]: −
Behavior of gene caused by administration of chemical substance, Gene No. 6303 (gene group (C), Unigene No. Rn.123063): −
Behavior of gene caused by administration of chemical substance, Gene No. 5878 (gene group (C), Unigene No. Rn.143213): −
Behavior of gene caused by administration of chemical substance, Gene No. 1131 (gene group (C), Unigene No. Rn.144946): +
Behavior of gene caused by administration of chemical substance, Gene No. 1562 (gene group (C), Unigene No. Rn.14744): −
Behavior of gene caused by administration of chemical substance, Gene No. 1741 (gene group (C), Unigene No. Rn.1647): −
Behavior of gene caused by administration of chemical substance, Gene No. 893 (gene group (C), Unigene No. Rn.164817): −
Behavior of gene caused by administration of chemical substance, Gene No. 6026 (gene group (C), Unigene No. Rn.167685): −
Behavior of gene caused by administration of chemical substance, Gene No. 154 (gene group (C), Unigene No. Rn.185941): −
Behavior of gene caused by administration of chemical substance, Gene No. 1993 (gene group (C), Unigene No. Rn.18728): −
Behavior of gene caused by administration of chemical substance, Gene No. 813 (gene group (C), Unigene No. Rn.201760): −
Behavior of gene caused by administration of chemical substance, Gene No. 2494 (gene group (C), Unigene No. Rn.23969): −
Behavior of gene caused by administration of chemical substance, Gene No. 2546 (gene group (C), Unigene No. Rn.24561): −
Behavior of gene caused by administration of chemical substance, Gene No. 3776 (gene group (C), Unigene No. Rn.43232): −
Behavior of gene caused by administration of chemical substance, Gene No. 3929 (gene group (C), Unigene No. Rn.4620): −
Behavior of gene caused by administration of chemical substance, Gene No. 1119 (gene group (C), Unigene No. Rn.9757): −
Behavior of gene caused by administration of chemical substance, Gene No. 6742 (gene group (C), Unigene No. Rn.9779): −
Behavior of gene caused by administration of chemical substance, Gene No. 5634 (gene group (C), Unigene No. Rn.9862): −
Behavior of gene caused by administration of chemical substance, Gene No. 5726 (gene group (D), Unigene No. Rn.9939): −

CC(C)[N+](=O)[O-] [TS013, 2-Nitropropane]
Behavior of gene caused by administration of chemical substance, Gene No. 4846 ((A), Unigene Rn.144554, defined direction +, rat liver, oral once daily 28 days): +
Behavior of gene caused by administration of chemical substance, Gene No. 4218 ((A), Unigene Rn.167075, defined direction +, rat liver, oral once daily 28 days, significant = 1.5 times or more or 1/1.5 or less of control): +
Behavior of gene caused by administration of chemical substance, Gene No. 2026 ((A), Unigene Rn.167075, defined direction −, rat liver, oral once daily 28 days): +
Behavior of gene caused by administration of chemical substance, Gene No. 6182 ((A), Unigene Rn.5834, defined direction +, rat liver, oral once daily 28 days): +
Behavior of gene caused by administration of chemical substance, Gene No. 5600 ((A), Unigene Rn.9836, defined direction +, rat liver, oral once daily 28 days): +
Behavior of gene caused by administration of chemical substance, Gene No. 1494 ((B), Unigene Rn.1430, defined direction −, rat liver, oral once daily 28 days): +
Behavior of gene caused by administration of chemical substance, Gene No. 2045 ((B), Unigene Rn.19329, defined direction +, rat liver, oral once daily 28 days): −
Behavior of gene caused by administration of chemical substance, Gene No. 2203 ((B), Unigene Rn.21240, defined direction +, rat liver, oral once daily 28 days): −
Behavior of gene caused by administration of chemical substance, Gene No. 533 ((C), Unigene Rn.106184, defined direction +, rat liver, oral once daily 28 days): +
Behavior of gene caused by administration of chemical substance, Gene No. 725 ((C), Unigene Rn.108075, defined direction −, rat liver, oral once daily 28 days): +
Behavior of gene caused by administration of chemical substance, Gene No. 1163 ((C), Unigene Rn.11766, defined direction +, rat liver, oral once daily 28 days): −
Behavior of gene caused by administration of chemical substance, Gene No. 4973 ((C), Unigene Rn.118529, defined direction −, rat liver, oral once daily 28 days): +
Behavior of gene caused by administration of chemical substance, Gene No. 4095 ((C), Unigene Rn.119024, defined direction −, rat liver, oral once daily 28 days): −
Behavior of gene caused by administration of chemical substance, Gene No. 1334 [3]: −
Behavior of gene caused by administration of chemical substance, Gene No. 6620 [3]: −
Behavior of gene caused by administration of chemical substance, Gene No. 6303 ((C), Unigene Rn.123063, defined direction −, rat liver, oral once daily 28 days): +
Behavior of gene caused by administration of chemical substance, Gene No. 5878 ((C), Unigene Rn.143213, defined direction −, rat liver, oral once daily 28 days): −
Behavior of gene caused by administration of chemical substance, Gene No. 1131 ((C), Unigene Rn.144946, defined direction −, rat liver, oral once daily 28 days): −
Behavior of gene caused by administration of chemical substance, Gene No. 1562 ((C), Unigene Rn.14744, defined direction −, rat liver, oral once daily 28 days): +
Behavior of gene caused by administration of chemical substance, Gene No. 1741 ((C), Unigene Rn.1647, defined direction −, rat liver, oral once daily 28 days): −
Behavior of gene caused by administration of chemical substance, Gene No. 893 ((C), Unigene Rn.164817, defined direction +, rat liver, oral once daily 28 days): −
Behavior of gene caused by administration of chemical substance, Gene No. 6026 ((C), Unigene Rn.167685, defined direction −, rat liver, oral once daily 28 days): −
Behavior of gene caused by administration of chemical substance, Gene No. 154 ((C), Unigene Rn.185941, defined direction −, rat liver, oral once daily 28 days): +
Behavior of gene caused by administration of chemical substance, Gene No. 1993 ((C), Unigene Rn.18728, defined direction −, rat liver, oral once daily 28 days): +
Behavior of gene caused by administration of chemical substance, Gene No. 813 ((C), Unigene Rn.201760, defined direction +, rat liver, oral once daily 28 days): −
Behavior of gene caused by administration of chemical substance, Gene No. 2494 ((C), Unigene Rn.23969, defined direction +, rat liver, oral once daily 28 days): −
Behavior of gene caused by administration of chemical substance, Gene No. 2546 ((C), Unigene Rn.24561, defined direction −, rat liver, oral once daily 28 days): −
Behavior of gene caused by administration of chemical substance, Gene No. 3776 ((C), Unigene Rn.43232, defined direction −, rat liver, oral once daily 28 days): −
Behavior of gene caused by administration of chemical substance, Gene No. 3929 ((C), Unigene Rn.4620, defined direction +, rat liver, oral once daily 28 days): −
Behavior of gene caused by administration of chemical substance, Gene No. 1119 ((C), Unigene Rn.9757, defined direction +, rat liver, oral once daily 28 days): −
Behavior of gene caused by administration of chemical substance, Gene No. 6742 ((C), Unigene Rn.9779, defined direction +, rat liver, oral once daily 28 days): −
Behavior of gene caused by administration of chemical substance, Gene No. 5634 ((C), Unigene Rn.9862, defined direction −, rat liver, oral once daily 28 days): −
Behavior of gene caused by administration of chemical substance, Gene No. 5726 ((D), Unigene Rn.9939, defined direction −, rat liver, oral once daily 28 days): −
